Patent US7078499B2, “Nucleotide analogues comprising a reporter moiety and a polymerase enzyme blocking moiety” (GE Healthcare UK Limited, priority 2000, dated 2006)

Key:
Assay type in all cases: biochemical
Bst DNA polymerase = target: T1, Bst DNA polymerase (Geobacillus stearothermophilus, UniProt P52026); test: Mesophilic DNA polymerase primer extension, Bst; parameters: key to result of incorporation (termination / further chain extension): T: Incorporation results in termination; E: Incorporation permits further chain extension; T/E: Predominant product is primer extended by one base, but evidence of some further extension also observed; conditions: DNA template, 37° C. for 20–40 minutes; for primer extended by at least one base within assay time (grade): TTP replaced entirely by test compound
T1 construct: purchased Cambio Ltd
T1 sequence (P52026 1-876): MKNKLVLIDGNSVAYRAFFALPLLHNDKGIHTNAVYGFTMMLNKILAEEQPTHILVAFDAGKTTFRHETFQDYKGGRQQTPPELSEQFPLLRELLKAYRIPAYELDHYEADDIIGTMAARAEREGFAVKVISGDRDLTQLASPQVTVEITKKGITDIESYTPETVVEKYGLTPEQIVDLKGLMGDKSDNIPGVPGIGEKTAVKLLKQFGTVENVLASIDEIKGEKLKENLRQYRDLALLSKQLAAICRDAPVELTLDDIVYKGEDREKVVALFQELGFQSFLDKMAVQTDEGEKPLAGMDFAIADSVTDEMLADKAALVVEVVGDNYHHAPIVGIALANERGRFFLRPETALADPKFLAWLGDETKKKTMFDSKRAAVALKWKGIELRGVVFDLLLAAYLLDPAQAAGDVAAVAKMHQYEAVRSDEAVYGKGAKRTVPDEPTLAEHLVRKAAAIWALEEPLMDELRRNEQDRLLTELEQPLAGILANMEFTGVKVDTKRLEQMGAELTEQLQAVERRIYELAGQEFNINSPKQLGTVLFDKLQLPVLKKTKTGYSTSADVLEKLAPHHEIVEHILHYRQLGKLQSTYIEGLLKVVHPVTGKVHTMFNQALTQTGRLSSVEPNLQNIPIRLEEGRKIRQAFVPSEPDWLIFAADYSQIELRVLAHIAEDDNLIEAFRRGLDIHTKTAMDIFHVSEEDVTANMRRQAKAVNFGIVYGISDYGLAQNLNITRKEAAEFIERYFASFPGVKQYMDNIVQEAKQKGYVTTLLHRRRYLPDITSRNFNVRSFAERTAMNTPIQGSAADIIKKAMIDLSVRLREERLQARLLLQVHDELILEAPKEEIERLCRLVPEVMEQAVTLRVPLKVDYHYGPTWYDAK
Description: (§1) DNA polymerase assays were performed using Sequence 1 as primer and Sequence 2 as template. • Sequence 1 5′[Cy3]TAACTCATTAACAGGATC 3′ • Sequence 2 5′AT TCGCGGTATTCTGGTATGAAGCTTTTAGATCCTGTTAATGAGTTA GTA3′
(§2) The template (Sequence 2) was designed such that the base (underlined) immediately adjacent to the 3′ end of the hybridised primer is complementary to the nucleotide test compound. Nucleotide test compounds were compounds (6) (4′-C-(glycylaminomethyl)thymidine triphosphate), (8) (4′-C-(N-trifluoroacetyaminomethyl)thymidine triphosphate) and (9) (4′-C-(aminomethyl)thymidine triphosphate) as described above.
(§3) Primer extension reactions were performed using the above primers in the presence of 40 to 80 μM of nucleotide triphosphates. Positive control reactions contained all four native nucleotide triphosphates. For the other reactions the TTP was replaced with either a 2:1 ratio of […] for the terminator control, or entirely by the test compound The enzymes were used at a final concentration of 0.175 units/μl and a magnesium ion concentration of 2.5 mM in buffers supplied by the manufacturer. The primer and template concentrations were 0.5 pmol/μl and 2 pmol/μl respectively.
(§4) Extension reactions preformed with mesophilic polymerases were carried out by mixing all the components of the reaction except the enzyme and heating to 70° C. for 5 min. After the reactions had cooled to room temperature 0.175 units of the enzyme were added and the reactions heated to 37° C. for 20–40 minutes. The following enzymes were used: T7 DNA polymerase (T7); Sequenase 2™ (Seq); Klenow fragment of DNA polymerase 1 (Klen); phi-29 DNA polymerase (Phi-29); T4 DNA polymerase (T4) (all from AP Biotech) and Bst DNA polymerase (Bst) (Cambio Ltd).
(§5) The reactions were stopped by adding a 0.5 volume aliquot of 80% formamide containing 0.1% (w/v) bromophenol blue and 0.1% (w/v) cresol blue. The reaction products were separated by denaturing gel electrophoresis at a constant power of 45 W on 16% polyacrylamide gels containing 50% urea.
(§6) Gels were scanned for Cy3 fluorescence on a Molecular Dynamics Fluorimager and the data analysed using Molecular Dynamics ImageQuant 5 software.
(§7) The incorporation of a test nucleotide triphosphate results in the appearance on a polyacrylamide gel of a single band corresponding to a single base extension product. If, however, the enzyme adds additional bases then further bands would be observed that corresponded to either the full-length product or positions of other complementary bases in the template.

Taq DNA polymerase = target: T2, Taq DNA polymerase (Thermus aquaticus, UniProt P19821); test: Thermostable DNA polymerase primer extension, Taq; parameters: key to result of incorporation (termination / further chain extension): T: Incorporation results in termination; E: Incorporation permits further chain extension; T/E: Predominant product is primer extended by one base, but evidence of some further extension also observed; conditions: DNA template, 45° C. for 20–40 minutes; for primer extended by at least one base within assay time (grade): TTP replaced entirely by test compound
T2 construct: purchased APBiotech
T2 sequence (P19821 whole entry): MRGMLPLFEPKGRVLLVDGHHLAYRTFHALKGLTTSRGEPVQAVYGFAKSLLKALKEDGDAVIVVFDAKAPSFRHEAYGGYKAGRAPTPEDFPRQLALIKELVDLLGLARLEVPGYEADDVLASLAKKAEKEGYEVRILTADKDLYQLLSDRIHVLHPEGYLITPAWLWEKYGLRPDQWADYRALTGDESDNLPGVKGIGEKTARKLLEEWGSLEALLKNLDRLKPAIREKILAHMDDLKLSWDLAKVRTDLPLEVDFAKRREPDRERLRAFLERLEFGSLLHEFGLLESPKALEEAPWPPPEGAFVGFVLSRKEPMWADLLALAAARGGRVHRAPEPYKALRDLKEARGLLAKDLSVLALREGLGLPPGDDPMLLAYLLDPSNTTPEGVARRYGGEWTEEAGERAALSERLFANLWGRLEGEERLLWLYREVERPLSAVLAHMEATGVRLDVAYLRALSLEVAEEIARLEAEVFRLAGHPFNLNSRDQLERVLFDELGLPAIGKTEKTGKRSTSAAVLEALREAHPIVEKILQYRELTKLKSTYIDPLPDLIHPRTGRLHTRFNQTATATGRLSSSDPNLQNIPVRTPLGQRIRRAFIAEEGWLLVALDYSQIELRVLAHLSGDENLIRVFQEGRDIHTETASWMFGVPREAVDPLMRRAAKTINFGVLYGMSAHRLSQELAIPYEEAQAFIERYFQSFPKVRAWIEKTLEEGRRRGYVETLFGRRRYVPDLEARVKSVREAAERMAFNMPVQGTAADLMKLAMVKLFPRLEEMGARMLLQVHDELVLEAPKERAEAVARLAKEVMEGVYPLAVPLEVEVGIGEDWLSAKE
Description: as §1, §2, §3
(§8) Extension reactions with thermophilic enzymes were performed by initially denaturing the fully assembled reactions at 70° C. for 5 min. followed by 45° C. for 20–40 minutes. The following enzymes were used: Taq DNA polymerase (Taq); Thermosequenase (TS); Thermosequenase II (TSII); Thermosequenase E (TSE), Tfl DNA polymerase (Tfl); Tth DNA polymerase (Tth), deltaTts DNA polymerase (deltaTts), deltaTts D DNA polymerase (dettaTTSD) (all from APBiotech); Pfu DNA polymerase (Pfu) (Stratagene Ltd); Vent™ DNA polymerase (Vent) (New England Biolabs).
as §5, §6, §7

[1] = target: T3, Klenow fragment of DNA polymerase 1 (Escherichia coli, UniProt P00582); test: Mesophilic DNA polymerase primer extension, Klen; parameters: key: −: No extension within assay time; +/−: up to 25% of primer extended by at least one base within assay time; +: up to 50% of primer extended by at least one base within assay time; ++: up to 75% of primer extended by at least one base within assay time; +++: essentially all primer extended by at least one base within assay time; conditions: DNA template, TTP replaced entirely by test compound, 37° C. for 20–40 minutes
T3 construct: Klenow fragment of DNA polymerase 1 (Klen); purchased AP Biotech
T3 sequence (P00582 324-928): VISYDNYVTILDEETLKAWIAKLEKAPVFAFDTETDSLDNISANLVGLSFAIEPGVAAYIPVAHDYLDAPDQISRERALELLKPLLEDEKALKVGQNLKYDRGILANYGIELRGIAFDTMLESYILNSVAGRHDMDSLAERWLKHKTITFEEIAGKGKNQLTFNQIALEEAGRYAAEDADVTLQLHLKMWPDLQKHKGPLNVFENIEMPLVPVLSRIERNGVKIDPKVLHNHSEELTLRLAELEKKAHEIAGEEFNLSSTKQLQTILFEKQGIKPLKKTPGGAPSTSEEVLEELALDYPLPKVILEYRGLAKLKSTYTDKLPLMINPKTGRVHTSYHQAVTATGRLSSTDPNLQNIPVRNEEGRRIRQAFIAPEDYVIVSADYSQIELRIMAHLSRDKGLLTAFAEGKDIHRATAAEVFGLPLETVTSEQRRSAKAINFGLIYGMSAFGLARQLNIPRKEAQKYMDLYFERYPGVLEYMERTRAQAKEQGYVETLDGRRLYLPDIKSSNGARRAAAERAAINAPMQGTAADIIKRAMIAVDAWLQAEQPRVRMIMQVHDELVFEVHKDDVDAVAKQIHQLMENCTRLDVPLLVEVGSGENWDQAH
Description: as §1, §2, §3, §4
The reactions were stopped by adding a 0.5 volume aliquot of 80% formamide containing 0.1% (w/v) bromophenol blue and 0.1% (w/v) cresol blue. […]
Gels were scanned for Cy3 fluorescence on a Molecular Dynamics Fluorimager and the data analysed using Molecular Dynamics ImageQuant 5 software. […]

Tth DNA polymerase = target: T4, Tth DNA polymerase (Thermus thermophilus, UniProt P52028); test: Thermostable DNA polymerase primer extension, Tth; parameters: key to result of incorporation (termination / further chain extension): T: Incorporation results in termination; E: Incorporation permits further chain extension; T/E: Predominant product is primer extended by one base, but evidence of some further extension also observed; conditions: DNA template, 45° C. for 20–40 minutes; for primer extended by at least one base within assay time (grade): TTP replaced entirely by test compound
T4 construct: purchased APBiotech
T4 sequence (P52028 whole entry): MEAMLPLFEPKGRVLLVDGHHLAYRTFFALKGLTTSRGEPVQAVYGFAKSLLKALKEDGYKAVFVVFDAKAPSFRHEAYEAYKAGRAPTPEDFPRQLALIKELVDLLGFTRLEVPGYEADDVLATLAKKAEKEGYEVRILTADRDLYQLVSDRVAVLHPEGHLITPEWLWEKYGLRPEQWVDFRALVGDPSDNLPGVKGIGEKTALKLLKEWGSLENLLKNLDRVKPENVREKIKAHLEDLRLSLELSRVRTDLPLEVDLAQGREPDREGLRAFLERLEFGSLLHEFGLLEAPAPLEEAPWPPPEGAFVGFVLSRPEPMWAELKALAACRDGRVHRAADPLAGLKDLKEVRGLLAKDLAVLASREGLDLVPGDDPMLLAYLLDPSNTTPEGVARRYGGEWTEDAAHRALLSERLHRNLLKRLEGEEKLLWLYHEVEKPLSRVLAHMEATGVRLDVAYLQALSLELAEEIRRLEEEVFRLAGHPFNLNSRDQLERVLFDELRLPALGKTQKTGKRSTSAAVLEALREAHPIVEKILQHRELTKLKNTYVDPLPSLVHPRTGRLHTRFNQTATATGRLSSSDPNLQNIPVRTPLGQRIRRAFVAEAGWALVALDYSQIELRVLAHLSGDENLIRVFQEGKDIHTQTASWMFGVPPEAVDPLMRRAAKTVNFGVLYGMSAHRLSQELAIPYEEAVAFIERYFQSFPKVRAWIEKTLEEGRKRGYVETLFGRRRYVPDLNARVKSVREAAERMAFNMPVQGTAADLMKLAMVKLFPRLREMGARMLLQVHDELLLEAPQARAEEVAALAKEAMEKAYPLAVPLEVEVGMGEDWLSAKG
Description: as §1, §2, §3, §8, §5, §6, §7

| Compound | result of incorporation (termination / further chain extension) (Bst DNA polymerase) | primer extended by at least one base within assay time (grade) (Bst DNA polymerase) | result of incorporation (termination / further chain extension) (Taq DNA polymerase) | primer extended by at least one base within assay time (grade) (Taq DNA polymerase) | primer extended by at least one base within assay time (grade) [1] | result of incorporation (termination / further chain extension) (Tth DNA polymerase) | primer extended by at least one base within assay time (grade) (Tth DNA polymerase) |
| --- | --- | --- | --- | --- | --- | --- | --- |
| 4′-C-(Glycylaminomethyl)thymidine triphosphate [compound (6)] | T | + (up to 50% of primer extended by at least one base within assay time) | T | +/− (up to 25% of primer extended by at least one base within assay time) | − | T | + (up to 50% of primer extended by at least one base within assay time) |
| Cc1cn([C@H]2C[C@H](O)[C@@](CNC(=O)C(F)(F)F)(COP(=O)(O)OP(=O)(O)OP(=O)(O)O)O2)c(=O)[nH]c1=O [compound (8), 4′-C-(N-trifluoroacetylaminomethyl)thymidine triphosphate] | T | + (up to 50% of primer extended by at least one base within assay time) | T | +/− (up to 25% of primer extended by at least one base within assay time) | − | T | ++ (up to 75% of primer extended by at least one base within assay time) |
| 4′-C-(Aminomethyl)thymidine triphosphate [compound (9)] | T | + (up to 50% of primer extended by at least one base within assay time) | T | +/− (up to 25% of primer extended by at least one base within assay time) | − | T | ++ (up to 75% of primer extended by at least one base within assay time) |
